# According to patent US12534457B2, “Heteroaryl derivative compounds, and uses thereof” (Voronoi Inc., priority 2021, dated 2026):
# System: Ba/F3 cells expressing EGFR Del19/C797S (EGFR DC)
# Test: Proliferation inhibitory activity, Ba/F3 cells expressing EGFR Del19/C797S (CellTiter-Glo)
# Assay type: cell-based
# Conditions: Mus musculus, BaF3, 72 hours of compound treatment
# Method: The following experiments were performed to evaluate the inhibitory activity of the compounds according to the present disclosure on Ba/F3 proliferation expressing EGFR C797S, L861Q, G719A, S768I, L718Q, and/or G724S mutations.
# For Ba/F3 cells, RPMI-1640 containing 10% FBS and 5 ng/ml IL-3 (R&D Systems) was used. Transduced Ba/F3 cells were cultured after adding 1 μg/ml puromycin (Invitrogen) to the same medium.
# At 24 hours before treatment with the compounds, 3000 to 5000 cells were aliquoted into each well of a white clear bottom 96 well plate (Corning). The compounds were diluted in dimethyl sulfoxide (3 times dilution, 12 concentrations in total), and injected in an amount of 1 μl so that the final concentration was 0.2 nM to 5 uM. For measurement of living cells, after 72 hours of compound treatment, the cells were stored at room temperature for 10 min using CellTiter-Glo luminescentcell-viability reagent (Promega), and then luminescence intensity was measured using a reader (SynergyNeo, Biotek). Each test was repeated three times. Result values were calculated as the cell growth rate (%) compared to the control. The graphs were created using GraphPad Prism version 8.3.0 program and the GI50 values were calculated.
row,GI50,SMILES
1,< 50 nM,"COc1cc(N2CCC(N3CCN(C(C)C)CC3)CC2)ccc1Nc1cc(N2OCC[C@@H]2c2cccc(F)c2F)ncn1 [Example 222, (R)-6-(3-(2,3-difluorophenyl)isoxazolidin-2-yl)-N-(4-(4-(4-isopropylpiperazin-1-yl)piperidin-1-yl)-2-methoxyphenyl)pyrimidin-4-amine]"
2,< 50 nM,"COc1cc(N2CCC3(CC2)CCN(C(C)(C)CF)CC3)c(-c2cnn(C)c2)cc1Nc1cc(N2OCC[C@@H]2c2cccc(F)c2F)ncn1 [Example 195, (R)-6-(3-(2,3-difluorophenyl)isoxazolidin-2-yl)-N-(4-(9-(1-fluoro-2-methylpropan-2-yl)-3,9-diazaspiro[5.5]undecan-3-yl)-2-methoxy-5-(1-methyl-1H-pyrazol-4-yl)phenyl)pyrimidin-4-amine]"
3,< 50 nM,"COc1cc(N2CCC(N3CCN(C)CC3)CC2)ccc1Nc1cc(N2OCC[C@@H]2c2ccc(F)c(Cl)c2)ncn1 [Example 31, (R)-6-(3-(3-chloro-4-fluorophenyl)isoxazolidin-2-yl)-N-(2-methoxy-4-(4-(4-methylpiperazin-1-yl)piperidin-1-yl)phenyl)pyrimidin-4-amine]"
4,< 50 nM,"COc1cc(N2CCC(N3C[C@H]4C[C@@H]3CO4)CC2)ccc1Nc1cc(N2OCC[C@@H]2c2ccccc2)ncn1 [Example 97, N-(4-(4-((1R,4R)-2-oxa-5-azabicyclo[2.2.1]heptan-5-yl)piperidin-1-yl)-2-methoxyphenyl)-6-((R)-3-phenylisoxazolidin-2-yl)pyrimidin-4-amine]"
5,< 50 nM,"COc1cc(N2CC(N3CCN(C)CC3)C2)ccc1Nc1cc(N2OCC[C@@H]2c2cccc(F)c2F)ncn1 [Example 218, (R)-6-(3-(2,3-difluorophenyl)isoxazolidin-2-yl)-N-(2-methoxy-4-(3-(4-methylpiperazin-1-yl)azetidin-1-yl)phenyl)pyrimidin-4-amine]"
6,< 50 nM,"CN1CCC(c2ccc(Nc3cc(N4OCC[C@@H]4c4cc(F)cc(F)c4)ncn3)c3c2CCO3)CC1 [Example 155, (R)-6-(3-(3,5-difluorophenyl)isoxazolidin-2-yl)-N-(4-(1-methylpiperidin-4-yl)-2,3-dihydrobenzofuran-7-yl)pyrimidin-4-amine]"
7,< 50 nM,"CN(C)C1CCN(c2ccc(Nc3cc(N4OCC[C@@H]4c4ccccc4)ncn3)cc2)CC1 [Example 127, (R)—N-(4-(4-(dimethylamino)piperidin-1-yl)phenyl)-6-(3-phenylisoxazolidin-2-yl)pyrimidin-4-amine]"
8,< 50 nM,"CN(C)C1CCN(c2ccc(Nc3cc(N4OCC[C@@H]4c4ccccc4)ncn3)nc2)CC1 [Example Compound 138, (R)-N-(5-(4-(dimethylamino)piperidin-1-yl)pyridin-2-yl)-6-(3-phenylisoxazolidin-2-yl)pyrimidin-4-amine]"
9,< 50 nM,"COc1cc(N2CCC(N3CCN(C)C[C@@H]3C)CC2)ccc1Nc1cc(N2OCC[C@@H]2c2cccc(F)c2F)ncn1 [Example 216, 6-((R)-3-(2,3-difluorophenyl)isoxazolidin-2-yl)-N-(4-(4-((S)-2,4-dimethylpiperazin-1-yl)piperidin-1-yl)-2-methoxyphenyl)pyrimidin-4-amine]"
10,50 to 500 nM,"COc1cccc([C@H]2CCON2c2cc(Nc3ccc(N4CCC(N5CCN(C)CC5)CC4)cc3OC)ncn2)c1 [Example 41, (R)—N-(2-methoxy-4-(4-(4-methylpiperazin-1-yl)piperidin-1-yl)phenyl)-6-(3-(3-methoxyphenyl)isoxazolidin-2-yl)pyrimidin-4-amine]"
11,< 50 nM,"COc1cc(N2CCC(N3CCN4CCCC4C3)CC2)c(NC(=O)CCCl)cc1Nc1cc(N2OCC[C@@H]2c2cc(F)cc(F)c2)ncn1 (stereo partly drawn) [Example 86, 3-chloro-N-(5-((6-((R)-3-(3,5-difluorophenyl)isoxazolidin-2-yl)pyrimidin-4-yl)amino)-2-(4-(hexahydropyrrolo[1,2-a]pyrazin-2 (1H)-yl)piperidin-1-yl)-4-methoxyphenyl)propanamide]"
12,< 50 nM,"COc1cc(N2CCC(N3CCN(CC4CC4)CC3)CC2)ccc1Nc1cc(N2OCC[C@@H]2c2cccc(F)c2F)ncn1 [Example 210, (R)—N-(4-(4-(4-(cyclopropylmethyl)piperazin-1-yl)piperidin-1-yl)-2-methoxyphenyl)-6-(3-(2,3-difluorophenyl)isoxazolidin-2-yl)pyrimidin-4-amine]"
13,< 50 nM,"CCC(=O)Nc1cc(Nc2cc(N3OCC[C@@H]3c3cc(F)cc(F)c3)ncn2)c(OC)cc1N1CCC(N2CCN(C3CC3)CC2)CC1 [Example 161, (R)—N-(2-(4-(4-cyclopropylpiperazin-1-yl)piperidin-1-yl)-5-((6-(3-(3,5-difluorophenyl)isoxazolidin-2-yl)pyrimidin-4-yl)amino)-4-methoxyphenyl)propionamide]"
14,50 to 500 nM,"CN(C)CCN(C)c1ccc(Nc2cc(N3OCC[C@@H]3c3cc(F)cc(F)c3)ncn2)cc1 [Example 19, (R)—N^1-(6-(3-(3,5-difluorophenyl)isoxazolidin-2-yl)pyrimidin-4-yl)-N^4-(2-(dimethylamino)ethyl)-N^4-methylbenzene-1,4-diamine]"
15,< 50 nM,"COc1cc(Nc2cc(N3OCC[C@@H]3c3cc(F)ccc3F)ncn2)ccc1N1CCC(N2CCN(C)CC2)CC1 [Example 106, (R)-6-(3-(2,5-difluorophenyl)isoxazolidin-2-yl)-N-(3-methoxy-4-(4-(4-methylpiperazin-1-yl)piperidin-1-yl)phenyl)pyrimidin-4-amine]"
16,50 to 500 nM,"COc1cc(N2CCC(N3CCN(C)CC3)CC2)ccc1Nc1cc(N2OCC[C@@H]2c2cccc3ccccc23)ncn1 [Example 36, (R)—N-(2-methoxy-4-(4-(4-methylpiperazin-1-yl)piperidin-1-yl)phenyl)-6-(3-(naphthalen-1-yl)isoxazolidin-2-yl)pyrimidin-4-amine]"
17,50 to 500 nM,"CN1CCN(c2ccc(Nc3cc(N4OCC[C@H]4c4ccccc4)ncn3)cc2)CC1 [Example 2, (S)—N-(4-(4-methylpiperazin-1-yl)phenyl)-6-(3-phenylisoxazolidin-2-yl)pyrimidin-4-amine]"
18,50 to 500 nM,"CN1CCC(n2cc(-c3ccc(Nc4cc(N5OCC[C@@H]5c5cc(F)cc(F)c5)ncn4)c4c3CCO4)cn2)CC1 [Example 160, (R)-6-(3-(3,5-difluorophenyl)isoxazolidin-2-yl)-N-(4-(1-(1-methylpiperidin-4-yl)-1H-pyrazol-4-yl)-2,3-dihydrobenzofuran-7-yl)pyrimidin-4-amine]"
19,< 50 nM,"COc1cc(N2CCC(N3CC4(CN(C)C4)C3)CC2)ccc1Nc1cc(N2OCC[C@@H]2c2cccc(F)c2F)ncn1 [Example 211, (R)-6-(3-(2,3-difluorophenyl)isoxazolidin-2-yl)-N-(2-methoxy-4-(4-(6-methyl-2,6-diazaspiro[3.3]heptan-2-yl)piperidin-1-yl)phenyl)pyrimidin-4-amine]"
20,50 to 500 nM,"COc1cc(N2CCC(N3CCN(C)CC3)CC2)ccc1Nc1cc(N2Oc3ccccc3C2c2ccccc2)ncn1 (stereo not drawn) [Example 230, N-(2-methoxy-4-(4-(4-methylpiperazin-1-yl)piperidin-1-yl)phenyl)-6-(3-phenylbenzo[d]isoxazol-2 (3H)-yl)pyrimidin-4-amine]"
21,< 50 nM,"COc1cc(OCCN(C)C)ccc1Nc1cc(N2OCC[C@@H]2c2ccccc2)ncn1 [Example 64, (R)—N-(4-(2-(dimethylamino)ethoxy)-2-methoxyphenyl)-6-(3-phenylisoxazolidin-2-yl)pyrimidin-4-amine]"
22,< 50 nM,"COc1nc(N2CCC(N3CCN(C)CC3)CC2)c(-c2cnn(C)c2)cc1Nc1cc(N2OCC[C@@H]2c2ccccc2)ncn1 [Example 147, (R)—N-(2-methoxy-5-(1-methyl-1H-pyrazol-4-yl)-6-(4-(4-methylpiperazin-1-yl)piperidin-1-yl)pyridin-3-yl)-6-(3-phenylisoxazolidin-2-yl)pyrimidin-4-amine]"
23,50 to 500 nM,"COc1cc(N2CCC(N3CCN(C)CC3)CC2)ccc1Nc1cc(N2OCC[C@@H]2c2cccc(C(F)F)c2)ncn1 [Example 184, (R)-6-(3-(3-(difluoromethyl)phenyl)isoxazolidin-2-yl)-N-(2-methoxy-4-(4-(4-methylpiperazin-1-yl)piperidin-1-yl)phenyl)pyrimidin-4-amine]"
24,< 50 nM,"C[C@@H](Oc1cc(N2CCC(N3CCN(C)CC3)CC2)ccc1Nc1cc(N2OCC[C@@H]2c2ccccc2)ncn1)C(F)(F)F [Example 56, N-(4-(4-(4-methylpiperazin-1-yl)piperidin-1-yl)-2-(((R)-1,1,1-trifluoropropan-2-yl)oxy)phenyl)-6-((R)-3-phenylisoxazolidin-2-yl)pyrimidin-4-amine]"
25,< 50 nM,"CCN(CC)C1CCN(c2ccc(Nc3cc(N4OCC[C@@H]4c4ccccc4)ncn3)c(OC)c2)CC1 [Example 98, (R)—N-(4-(4-(diethylamino)piperidin-1-yl)-2-methoxyphenyl)-6-(3-phenylisoxazolidin-2-yl)pyrimidin-4-amine]"
26,< 50 nM,"CCN1CCN(C2CCN(c3ccc(Nc4cc(N5OCC[C@@H]5c5cccc(F)c5F)ncn4)c(OC)c3)CC2)CC1 [Example 207, (R)-6-(3-(2,3-difluorophenyl)isoxazolidin-2-yl)-N-(4-(4-(4-ethylpiperazin-1-yl)piperidin-1-yl)-2-methoxyphenyl)pyrimidin-4-amine]"
27,< 50 nM,"COc1cc(Nc2cc(N3OCC[C@@H]3c3ccccc3)ncn2)ccc1N1CCC(N2CCN(CCO)CC2)CC1 [Example 121, (R)-2-(4-(1-(2-methoxy-4-((6-(3-phenylisoxazolidin-2-yl)pyrimidin-4-yl)amino)phenyl)piperidin-4-yl)piperazin-1-yl)ethan-1-ol]"
